Results as given in patent US20260248961A1, “UTILIZATION OF A HIBERNATION-LIKE STATE IN NEUROLOGICAL DISEASES” (OKINAWA INSTITUTE OF SCIENCE AND TECHNOLOGY SCHOOL …, priority 2022, published 2026).
“Also recorded” adds a separate entry of the source.

Columns and labels:
contextual fear memory = experiment: Contextual fear conditioning after QIH; format: in vivo, mice; conditions: after 48 hours of QIH and 72 hours recovery
Experimental: (§1) Two to three weeks after surgery, mice were first habituated to intraperitoneal (i.p.) injection of saline four times (once per day). On the day of QIH induction, mice were allowed to be habituated to the experimental room (15C) for 1 hour. A dose of 1 mg/kg of clozapine N-oxide (CNO) was i.p. injected to induce QIH in the same experimental room under darkness and low ambient temperatures of about 18-19 degrees celsius. Mice were allowed to stay in the room for 48 hours, and then returned to the housing colony once the QIH state had wore off.
Mice were first handled by an experimenter for at least 5 days to reduce their anxiety. During conditioning, the animals were first allowed to explore the context A (30.5L×24.1W×21H cm, metal grid floor, ethanol odor, white light, white noise) and then received 5 foot shocks (0.75 mA for 2 seconds with 30 seconds inter-shock-intervals). Next day, the same animals returned to the shocked context A and a novel neutral context B (30.5L×24.1W×21H cm, plastic flat floor, acetic acid odor, NIR light under darkness, triangle roof). After QIH induction and recovery, the mice were retested both in contexts A and B.

[1] = system: Q-neurons in the anteroventral periventricular nucleus (AVPe); experiment: QIH induction by CNO with body temperature and extracellular tetrode recording; format: in vivo, mice
Experimental: All animals were single-housed prior to surgery. During surgery, mice were anesthetized with MMB (a cocktail of medetomidine, midazolam, and butorphanol) and 500 nL of AAV-hSyn-DIO-hM3D(Gq)-mCherry vector was infused through a small craniotomy above AVPe (ML ±0.3; AP +0.38; DV −5.0) at a rate of 50 nL per minute with a micropump syringe (World Precision Instrument). After infusion, the 35 G needle stayed at the infusion site for at least 15 minutes to allow diffusion of the vector. After surgery, animals were carefully monitored to full recovery. For LFP and single/multi-unit recording, we implanted a microdrive consisting of 9 independently adjustable tetrodes (14 um diameter, nichrome wire, gold plated to 200-300 kΩ). In the 2-3 weeks after surgery the depth of the tetrodes were slowly and manually adjusted until stable recording of LFP signals or separatable spike clusters was observed. All adjustments were conducted in a highly familiar small plastic bucket located in the recording room while the animals moved and behaved freely.
as §1
All data were acquired using 32-channel Digital Lynx 4SX acquisition system (Neuralynx). The local field potential (LFP) was filtered at 2-9000 Hz. Spike waveforms were filtered between 0.6-6 kHz and those above a peak threshold of […] were time-stamped and digitized at 32,556 Hz. Spikes were manually sorted using SpikeSort3D software (Neuralynx). In short, waveform amplitudes of all spikes recorded from three channels were projected to three dimensional space and putative units were clustered. This procedure was repeated for all combinations of channels and also for energy of spikes. […] A low-pass filter with a cut-off frequency equal to half the target sampling frequency was applied to the LFP prior to downsampling to prevent signal distortion.

pilocarpine model of TLE = experiment: SRS onset monitoring after QIH induction during the latent period, pilocarpine model of TLE; format: in vivo, mice
Experimental: as §1
(§2) On the day of seizure injection, mice were first i.p. injected with 0.07 mL of scopolamine solution (0.5 mg/mL) to prevent adverse peripheral side effects. Thirty minutes later, 280 mg/kg pilocarpine solution was i.p. injected to produce acute seizure. After the mice reach stage 3, 4, or 5 on the Racine scale of behavioral seizures (modified version below), the development of status epilepticus (SE) is confirmed as a continuous state of seizures characterised by a behavioral expression such as a prominent head tic, rigidity of body and tail, and immobility. One to 3 hours after the initial onset of SE, 0.04 mL of Midazolam (5 mg/mL) was i.p. injected to attenuate the seizures.
Animals are observed by trained personnel on a daily basis, starting with the first day after QIH exit. The monitoring process is performed while animals are in their homecages, in the experimental room. Observation is conducted for one hour per mouse per day using the scale above (table 1) to identify the severity of the behavioral seizures as they occur. For each mouse, the day on which the first seizure is observed, as well as the perceived severity, are recorded.

[2] = applied on the epileptogenic zone; even after decades of monitoring (NPL22); cited from earlier work
[3] = Seizure induction with pilocarpine; format: in vivo, mice
Experimental: as §2

[4] = over four thousand adult patients (NPL17); cited from earlier work

C[N+]1([O-])CCN(C2=Nc3cc(Cl)ccc3Nc3ccccc32)CC1 [CNO, clozapine-N-oxide]
freezing behavior in Post-Test A (contextual fear memory; vs control animals without induction, FIG. 3B): comparable level of freezing behavior | freezing in Post-Test B (neutral context) (contextual fear memory; all groups): negligible degree of freezing | body temperature during QIH ([1]; after CNO injection (1 mg/kg i.p.), Qrfp-iCre mice with AAV-hSyn-DIO-hM3D(Gq)-mCherry in AVPe, FIG. 1A): reduction in their body temperature | spike activity of individual pyramidal cells in the dorsal CA1 ([1]; after QIH induction, FIG. 1C): rapid reduction in their spike activity | power spectral density of LFP in the dorsal CA1 ([1]; during QIH, FIG. 1B): substantial reduction in broad frequency ranges | time mice stay under QIH after injection ([1]; intraperitoneal CNO, spontaneous awakening and rewarming afterwards): 48 h | multi-unit activity recorded from the hypothalamus ([1]; upon QIH induction, FIG. 1D): reduced upon induction of QIH | SRS onset (duration of the latent phase) (pilocarpine model of TLE; QIH induced 24 h after midazolam, 48 h QIH, vs control animals in QIH chamber without induction, FIG. 2B): drastic delay in the SRS onset; also recorded: significantly delayed | severity of SRS (Racine scale) (pilocarpine model of TLE; QIH vs no QIH during the latent phase, FIG. 2C): no difference in the severity in the SRS | time of SRS after induction of the hibernation-like state (pilocarpine model of TLE; as opposed to 1-2 weeks in the rodent model): several months

CCCl [ethyl chloride]
seizure outcome [2]: complete remission from seizures

CC[C@@H]1C(=O)OC[C@@H]1Cc1cncn1C [Pilocarpine, pilocarpine]
time to seizures after injection ([3]; 280 mg/kg i.p.): thirty | duration of prolonged seizure (status epilepticus) ([3]; before termination with an anticonvulsant drug): about two

CC[C@@H](C(N)=O)N1CCCC1=O [Levetiracetam]
rate of psychiatric and behavioral side effects among the medications [4]: highest rates of side effects

NS(=O)(=O)Cc1noc2ccccc12 [Zonisamide]
rate of psychiatric and behavioral side effects among the medications [4]: highest rates of side effects
